In patent US20240181049A1, “HARNESSING THE POWER OF MICROBIOTA AND METABOLITES FOR THE TREATMENT OF CANCER” (UTI LIMITED PARTNERSHIP, priority 2019, published 2024):

Legend:
naïve CD4^+ T cells = assay: Naive CD4+ T cells with anti-CD3/anti-CD28 coated beads; assay type: cell-based, mice
Text: FIG. 4A-4K: Effect of inosine on T cell differentiation and dependency on classical dendritic cells of ICB therapy efficacy. (a) Scatter plot of untargeted metabolomics data in the serum of anti-CTLA-4 treated, tumor-bearing B.p. monocolonized compared to C.sp. monocolonized and germ-free (GF) mice. Grey circles or dotted grey circles depict inosine or inosine fragments/adducts, respectively. […] (c) Naïve CD4^+ T cells were co-cultured with bone marrow derived dendritic cells and IFN-γ. Quantification of T-bet^+CD3ε^+CD4^+ T cells 48 hours after co-culture in the presence or absence of inosine, A2A receptor inhibitor (ZM241385), cell permeable cAMP (db-cAMP) and protein kinase A inhibitor (RP-8-CPT-CAMPS). (d) Same as (c) without IFN-γ. (e) Representative plot and quantification (left and right panel) of phospho-CREB (Ser133) levels in naïve CD4^+ T cells cultured with anti-CD3/anti-CD28 coated beads for 1 hour in the presence or absence of inosine. (f) Schematic overview of experimental setup to deplete classical dendritic cells during MC38 tumor challenge and anti-CTLA-4 treatment. Intratumoral (g) frequency of CD8^+ T cells (h) IFN-γ^+CD8^+ T cells. (i and j) same as (g and h), but CD4^+ T cells and (k) tumor weight at […]. Data are mean±SEM and pooled from two individual experiments (a-b) n=5-8 samples/group (c-e) 10-15 biological replicates/group (f-k) 10 mice/group. *, P<0.05; **, P<0.01; ***, P<0.001; ****, P<0.0001
FIG. 16A-16J: Context dependent effect of inosine on Th1 T cell differentiation. (a) Naïve CD4^+ T cells were co-cultured with bone marrow derived dendritic cells without IFN-γ. Quantification of T-bet^+CD3e^+CD4^+ T cells 48 hours after co-culture in the presence or absence of inosine and anti-CTLA-4, as indicated. (b) Naïve CD4^+ T cells were cultured anti-CD3/anti-CD28 coated beads at a ratio of 1:1 without IFN-γ for 48 hours. Representative plot and quantification of IL12Rβ2 surface expression on CD4^+ T cells in the presence or absence of inosine (left and right panel). (c) Quantification of T-bet^+CD3e^+CD4^+ T cells 48 hours after co-culture in the presence or absence of inosine, db-cAMP and anti-CTLA-4 as indicated. (d) Naïve, A2AR-deficient CD4^+ T cells were cultured with anti-CD3/anti-CD28 coated beads at a ratio of 1:1 without IFN-γ. Quantification of T-bet^+CD3e^+CD4^+ T cells 48 hours after co-culture in the presence or absence of inosine or db-cAMP (e) Representative plot and quantification (left and right panel) of pCREB expression of anti-CD3/anti-CD28 bead co-cultured CD4^+ T cells in the presence or absence of inosine or db-cAMP 1 hour after stimulation. Analysis through flow cytometry. (f and g) Naïve, wild type CD4^+ T cells were cultured with anti-CD3/anti-CD28 coated beads at a ratio of 1:1. Il12rb2 and Ifng gene transcripts (normalized to Gapdh) were evaluated 24 and 48 hours following inosine (1 mM) stimulation. Expression was normalized to cells treated with medium. Analysis through quantitative PCR assay (h) Naïve CD4^+ T cells were cultured with anti-CD3/anti-CD28 coated beads at a ratio of 1:1 without IFN-γ for 24 hours. Then inosine or vehicle was added at the indicated concentrations for another 48 hours before T cell differentiation and activation was assessed. (i) Adenosine concentrations in the duodenal-, jejunal- or cecal content of B.p. monocolonized mice and in the serum of B.p. or C.sp. monocolonized anti-CTLA-4 treated mice. (j) Naïve CD4^+ T cells were cultured with anti-CD3/anti-CD28 coated beads at a ratio of 1:1 without IFN-γ for 24 hours. Adenosine or was added then in the indicated concentrations for another 48 hours followed by T cell differentiation and activation was assessed through flow cytometry. […]

A2AR = A2AR (Homo sapiens, UniProt P29274); details: compared to adenosine; cited from earlier work
Sequence of A2AR (P29274 whole entry): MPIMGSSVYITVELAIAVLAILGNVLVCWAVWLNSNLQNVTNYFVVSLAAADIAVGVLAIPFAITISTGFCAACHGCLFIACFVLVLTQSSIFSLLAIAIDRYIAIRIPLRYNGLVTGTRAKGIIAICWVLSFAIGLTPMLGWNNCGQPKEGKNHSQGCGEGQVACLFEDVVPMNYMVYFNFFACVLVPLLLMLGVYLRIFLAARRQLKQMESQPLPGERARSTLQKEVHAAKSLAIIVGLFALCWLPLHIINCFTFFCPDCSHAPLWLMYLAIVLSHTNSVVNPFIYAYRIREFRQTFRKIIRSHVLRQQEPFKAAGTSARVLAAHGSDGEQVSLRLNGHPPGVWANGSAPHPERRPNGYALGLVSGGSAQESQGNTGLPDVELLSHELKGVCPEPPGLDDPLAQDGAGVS

MC38 = MC38 tumors in gnotobiotic Oligo-MM12 mice, inosine + anti-CTLA-4; assay type: in vivo
Method: FIG. 35A-35H. Inosine and live B. pseudolongum improve anti-CTLA-4 therapy efficacy in moderately diverse and complex microbiomes. A) Schematic overview of experimental setup to assess the effect of inosine on anti-tumor immunity in gnotobiotic mice (Oligo-MM12) stably colonized with 12 bacterial species. Upon palpable tumors, Oligo-MM12 colonized mice were treated with 100 μg anti-CTLA-4 i.p. or Isotype antibody (5 times every 72 hours). In addition, inosine (300 mg/KG/BW) or PBS was given daily orally through gavage. (B) Pictures of tumors and (C) tumor weight are shown at day 20. scale bars: 1 cm. (D) Quantification of intratumoral IFN-γ+ cells amongst CD8+ or CD4+ T cells are shown. (E) Schematic overview of experimental setup to assess the effect of inosine and B. pseudolongum on anti-tumor immunity in SPF mice. Following MC38 injection some mice received antibiotics (ABX), specifically Ampicillin 1 mg/ml, Colistin 1 mg/ml and Streptomycin 5 mg/ml for 7 days in the drinking water. Upon palpable tumors, antibiotics were removed and 100 μg anti-CTLA-4 (5 times every 72 hours) started. Mice concomitantly received either PBS, inosine (300 mg/KG/BW daily), B. pseudolongum or heat inactivated (H.i.) B. pseudolongum orally through gavage (5 times every 72 hours). (F) Pictures of tumors and (G) tumor weight are shown at day 20. scale bars: 1 cm. (H) Quantification of intratumoral IFN-γ+ cells amongst CD8+ or CD4+ cells are shown. Data are mean+/−SEM and (A-H) n=7 mice/group. P<0.05; **, P<0.01, ***, P<0.001.

OC[C@H]1O[C@@H](n2cnc3c(O)ncnc32)[C@H](O)[C@@H]1O [inosine]
phosphorylation of CREB (Ser133) (naïve CD4^+ T cells; 1 hour): led to phosphorylation | Th1 differentiation (naïve CD4^+ T cells; bead-activated naïve T cells, no DCs): enhanced Th1 differentiation, even in the absence of IFN-γ | Il12rb2 and Ifng gene transcription (naïve CD4^+ T cells; inosine 1 mM, 24 and 48 hours, quantitative PCR): sustained upregulation | Th1 activation, inosine dose response (naïve CD4^+ T cells; physiological concentrations observed in sera of B.p. but not C.sp. monocolonized mice): sufficient to induce Th1 activation | IL12Rβ2 surface expression (naïve CD4^+ T cells; without IFN-γ, 48 hours): upregulation of IL12Rβ2 | A2AR-dependent signaling bias, preference for ERK1/2 phosphorylation (A2AR): 3.3 fold | intra-tumoral IFN-γ+CD8+ and IFN-γ+CD4+ T cells (MC38): increased | tumor size (MC38): reduced tumor size | anti-tumor effects of anti-CTLA-4 (MC38; inosine 300 mg/KG/BW daily orally): able to promote the anti-tumor effects of anti-CTLA-4
